Reference: ChEMBL document CHEMBL1201862, “PubChem BioAssay data set” (2004)
Counter-ions that a name gives are not always drawn.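 Results reflect a 48-hour exposure of cells in 96-well plates to compound at five concentrations. GI50 is the concentration that inhibits growth by half.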 Calls of active or inactive are those of the source. Rule as the data show it: active = GI50 up to about 1.1 µM and inactive = higher. Peptide text beside a SMILES is read from it. * marks the point of attachment. Cbz = O=C(OCc1ccccc1)*; OBn = c1ccc(CO*)cc1

Key:
Test in all cases: NCI anticancer screen, dose series, 48 h
A549 = tested on: A549
ACHN = tested on: ACHN
CAKI-1 = tested on: CAKI-1
CCRF-CEM = tested on: CCRF-CEM
EKVX = tested on: EKVX
HOP-92 = tested on: HOP-92
IGROV-1 = tested on: IGROV-1
KM12 = tested on: KM12
M14 = tested on: M14
MCF7 = tested on: MCF7
MDA-N = tested on: MDA-N
NCI-H226 = tested on: NCI-H226
NCI-H460 = tested on: NCI-H460
SK-OV-3 = tested on: SK-OV-3
SNB-75 = tested on: SNB-75
SW-620 = tested on: SW-620
UACC-257 = tested on: UACC-257
UO-31 = tested on: UO-31
OVCAR-4 = tested on: OVCAR-4

| Structure (SMILES) | GI50 (A549) | GI50 (ACHN) | GI50 (CAKI-1) | GI50 (CCRF-CEM) | GI50 (EKVX) | GI50 (HOP-92) | GI50 (IGROV-1) | GI50 (KM12) | GI50 (M14) | GI50 (MCF7) | GI50 (MDA-N) | GI50 (NCI-H226) | GI50 (NCI-H460) | GI50 (SK-OV-3) | GI50 (SNB-75) | GI50 (SW-620) | GI50 (UACC-257) | GI50 (UO-31) | GI50 (OVCAR-4) |
| --- | --- | --- | --- | --- | --- | --- | --- | --- | --- | --- | --- | --- | --- | --- | --- | --- | --- | --- | --- |
| NCCCNCCCCNCCCN [SPERMINE TETRAHYDROCHLORIDE] | > 100 µM (inactive) | 4.12 µM (inactive) | 5.97 µM (inactive) | 3.67 µM (inactive) | 17.8 µM (inactive) | 1.93 µM (inactive) | 13.2 µM (inactive) | > 100 µM (inactive) | 9.66 µM (inactive) | 2.79 µM (inactive) | 15.2 µM (inactive) | > 100 µM (inactive) | > 100 µM (inactive) | > 38.7 µM (inactive) | > 100 µM (inactive) | 3.66 µM (inactive) | > 71.1 µM (inactive) | 2.23 µM (inactive) | – |
| COc1ccc(/C=C2\CN(C)CC3C2=NC(=S)NC3c2ccc(OC)cc2)cc1 (stereo not drawn) | 4 µM (inactive) | 5.73 µM (inactive) | 6.64 µM (inactive) | 8.13 µM (inactive) | 11.5 µM (inactive) | 3.21 µM (inactive) | 2.98 µM (inactive) | 2.97 µM (inactive) | 2.77 µM (inactive) | 2.82 µM (inactive) | 1.08 µM (active) | 41.5 µM (inactive) | 2.8 µM (inactive) | 5.66 µM (inactive) | – | 6.05 µM (inactive) | 4.82 µM (inactive) | 4.95 µM (inactive) | 4.92 µM (inactive) |
| NCC(O)CSCc1ccc(Cl)cc1 (stereo not drawn) | > 100 µM (inactive) | > 100 µM (inactive) | > 100 µM (inactive) | > 100 µM (inactive) | – | > 100 µM (inactive) | > 100 µM (inactive) | > 100 µM (inactive) | > 100 µM (inactive) | > 100 µM (inactive) | > 100 µM (inactive) | > 100 µM (inactive) | > 100 µM (inactive) | > 100 µM (inactive) | – | > 100 µM (inactive) | > 100 µM (inactive) | > 100 µM (inactive) | > 100 µM (inactive) |
| COC[C@@H](C[C@H]1O[C@@](O)([C@H](O)[C@@H]2C[C@H](OC)[C@@H](O)CC/C=C(C)/C=C/[C@@H](O[C@@H]3O[C@@H](C)[C@H](OC)[C@@H](O)[C@@H]3O)[C@H](C)/C=C(C)/C=C(C)/C=C(\C)C(=O)O2)[C@H](C)[C@@H](O)[C@H]1C)O[C@H]1C[C@](C)(O)[C@@H](O[C@H]2C[C@@H](OC)[C@H](O)[C@@H](C)O2)C(C)O1 (stereo partly drawn) | 1.32 µM (inactive) | 96.4 µM (inactive) | > 100 µM (inactive) | – | 0.119 µM (active) | > 90.2 µM (inactive) | > 100 µM (inactive) | > 66.2 µM (inactive) | > 100 µM (inactive) | 0.0785 µM (active) | > 100 µM (inactive) | 0.91 µM (active) | > 61 µM (inactive) | > 100 µM (inactive) | – | > 85.7 µM (inactive) | 0.0374 µM (active) | > 100 µM (inactive) | 41.3 µM (inactive) |
| O=C1C(O)=C(CCCCCCCCC2CCCCC2)C(=O)c2ccccc21 [MENOCTONE] | 5.58 µM (inactive) | 2.93 µM (inactive) | 5.5 µM (inactive) | 2.72 µM (inactive) | 4.55 µM (inactive) | 10 µM (inactive) | 5.3 µM (inactive) | 8.49 µM (inactive) | 10.8 µM (inactive) | 6.41 µM (inactive) | 4.75 µM (inactive) | – | 4.3 µM (inactive) | 16.1 µM (inactive) | 10.6 µM (inactive) | 4.23 µM (inactive) | 6.28 µM (inactive) | 8.34 µM (inactive) | 16.5 µM (inactive) |
| N#CCC(=O)c1cc(OCc2cc(OCc3ccc(Br)cc3)cc(OCc3ccc(Br)cc3)c2)cc(OCc2cc(OCc3ccc(Br)cc3)cc(OCc3ccc(Br)cc3)c2)c1 | > 100 µM (inactive) | > 100 µM (inactive) | > 100 µM (inactive) | – | > 100 µM (inactive) | > 100 µM (inactive) | – | > 100 µM (inactive) | > 100 µM (inactive) | > 100 µM (inactive) | > 100 µM (inactive) | > 100 µM (inactive) | > 100 µM (inactive) | > 100 µM (inactive) | > 100 µM (inactive) | – | > 100 µM (inactive) | > 100 µM (inactive) | > 100 µM (inactive) |
| COc1cc(/C=C2\N=C(c3ccccc3)N(c3nc4cc(C)c(C)cc4s3)C2=O)cc(OC)c1OC | 30.1 µM (inactive) | 27 µM (inactive) | 35.1 µM (inactive) | 7.41 µM (inactive) | 17.5 µM (inactive) | 13 µM (inactive) | 15.9 µM (inactive) | 21.8 µM (inactive) | 33.3 µM (inactive) | 18.5 µM (inactive) | 16.1 µM (inactive) | – | 29.2 µM (inactive) | 27.7 µM (inactive) | 18.5 µM (inactive) | 29.4 µM (inactive) | 28.9 µM (inactive) | 24.7 µM (inactive) | 21.3 µM (inactive) |
| Cc1c(NC(=S)Nc2ccc([N+](=O)[O-])cc2)c(=O)n(-c2ccccc2)n1C | > 100 µM (inactive) | > 100 µM (inactive) | > 100 µM (inactive) | > 100 µM (inactive) | > 100 µM (inactive) | > 100 µM (inactive) | > 100 µM (inactive) | > 100 µM (inactive) | > 100 µM (inactive) | > 100 µM (inactive) | > 100 µM (inactive) | > 100 µM (inactive) | > 100 µM (inactive) | > 100 µM (inactive) | > 100 µM (inactive) | > 100 µM (inactive) | > 100 µM (inactive) | > 100 µM (inactive) | – |
| O=c1[nH][nH]c(=O)n1/N=C/c1ccccc1 | > 100 µM (inactive) | > 100 µM (inactive) | > 100 µM (inactive) | > 100 µM (inactive) | > 100 µM (inactive) | > 100 µM (inactive) | > 100 µM (inactive) | > 100 µM (inactive) | > 100 µM (inactive) | > 100 µM (inactive) | > 100 µM (inactive) | > 100 µM (inactive) | > 100 µM (inactive) | > 100 µM (inactive) | > 100 µM (inactive) | > 100 µM (inactive) | > 100 µM (inactive) | > 100 µM (inactive) | – |
| COC(=O)/C=C1/CCC(C)(C(=O)NS(=O)(=O)c2ccc(C)cc2)C1(C)C (stereo not drawn) | > 100 µM (inactive) | > 100 µM (inactive) | > 100 µM (inactive) | > 100 µM (inactive) | > 100 µM (inactive) | > 100 µM (inactive) | > 100 µM (inactive) | > 100 µM (inactive) | > 100 µM (inactive) | > 100 µM (inactive) | > 100 µM (inactive) | > 100 µM (inactive) | > 100 µM (inactive) | > 100 µM (inactive) | – | > 100 µM (inactive) | > 100 µM (inactive) | > 100 µM (inactive) | > 100 µM (inactive) |
| CC[C@@]1(C[C@H]2C[C@@]3(C(=O)OC)c4[nH]c5ccccc5c4CCN3C2=S)COC2(CCCCC2)O1 | 54.6 µM (inactive) | 45.8 µM (inactive) | > 100 µM (inactive) | 7.23 µM (inactive) | 58.9 µM (inactive) | 2.62 µM (inactive) | 61.7 µM (inactive) | 4.47 µM (inactive) | 23.7 µM (inactive) | 33.3 µM (inactive) | 66.8 µM (inactive) | – | 5.78 µM (inactive) | > 100 µM (inactive) | 17.8 µM (inactive) | 3.13 µM (inactive) | 26.5 µM (inactive) | 7.78 µM (inactive) | > 100 µM (inactive) |
| OC1CCCCCCCCCCC1[S+]1CCCC1.O[B-](F)(F)F (stereo not drawn) | 96.6 µM (inactive) | > 100 µM (inactive) | > 100 µM (inactive) | > 100 µM (inactive) | > 100 µM (inactive) | 44.1 µM (inactive) | > 100 µM (inactive) | > 100 µM (inactive) | > 100 µM (inactive) | > 100 µM (inactive) | > 100 µM (inactive) | 50.9 µM (inactive) | > 100 µM (inactive) | > 100 µM (inactive) | – | > 100 µM (inactive) | 38.8 µM (inactive) | > 100 µM (inactive) | 85.9 µM (inactive) |
| COC(=O)CNC(=O)C(C)NC(=O)C(CC(=O)OCc1ccccc1)NC(=O)OCc1ccccc1 (stereo not drawn) (Cbz-Asp(OBn)-Ala-Gly-OMe; configuration not given here) | 39.5 µM (inactive) | – | 79.8 µM (inactive) | – | – | 66.5 µM (inactive) | > 100 µM (inactive) | 73.6 µM (inactive) | > 100 µM (inactive) | 55.7 µM (inactive) | 53.6 µM (inactive) | 36.1 µM (inactive) | 50.7 µM (inactive) | > 100 µM (inactive) | 72.1 µM (inactive) | 35.7 µM (inactive) | 32.4 µM (inactive) | 19.1 µM (inactive) | – |
| CCOC(=O)c1nc2ccc(C(F)(F)F)cc2nc1Oc1cc(OC)cc(OC)c1 | > 100 µM (inactive) | > 100 µM (inactive) | – | > 100 µM (inactive) | > 100 µM (inactive) | 40.1 µM (inactive) | 41.7 µM (inactive) | 36.8 µM (inactive) | > 100 µM (inactive) | > 100 µM (inactive) | > 100 µM (inactive) | 67.8 µM (inactive) | 60.5 µM (inactive) | > 100 µM (inactive) | 21.4 µM (inactive) | > 100 µM (inactive) | > 100 µM (inactive) | > 100 µM (inactive) | 26.4 µM (inactive) |
| O=C1/C(=C/c2ccccc2[N+](=O)[O-])N=C(c2ccccc2)N1c1nc2ccccc2s1 | 34.2 µM (inactive) | 23.2 µM (inactive) | 34.1 µM (inactive) | < 0.01 µM (active) | 29 µM (inactive) | 21 µM (inactive) | 11.9 µM (inactive) | 17.9 µM (inactive) | 42.7 µM (inactive) | 13 µM (inactive) | 26.1 µM (inactive) | 41.3 µM (inactive) | 27 µM (inactive) | – | 27.3 µM (inactive) | 34.4 µM (inactive) | 65 µM (inactive) | 31.6 µM (inactive) | 19.4 µM (inactive) |
